Here are results for four compounds from patent US6069172A, “(R)-2-(3-benzoylphenyl) propionic acid salts and pharmaceutical preparations containing them” (priority 1998, dated 2000).

Structures can show the parent of a compound that is named as a salt.

One data set relates to pain perception. Particulars: men; compared with (S) enantiomers; cited from earlier work.
The test system of a further data set is platelet aggregation. Put plainly: inhibitory action on platelet aggregation.
Data set [1] has as its system croton oil-induced ear oedema. The following applies: compared with racemate and (S) enantiomer; mice; cited from earlier work.
For data set [2] the following is noted: rats; in words; cited from earlier work.
The subject of data set [3] is carrageenin-induced oedema. The following applies: compared with racemate and (S) enantiomer; rats; cited from earlier work.
Another data set has as its system TXB2 synthesis. Put plainly: TXB2 synthesis inhibition in human blood. It counts as cell-based. The following applies: index of platelet antiaggregating properties.
In data set [4] the test system is ultra-violet radiation-induced epidermal erythema. The following applies: topic; guinea pigs; cited from earlier work.
Another data set can be described thus: gastrolesive action. Particulars: in vivo.
Data set [5] relates to chemotactic activity induced by zymosan. The following applies: healthy volunteers and patients; cited from earlier work.
For data set [6], the system named is carrageenin-induced pleural exudate; PMN cell migration. The following applies: cited from earlier work.
A further data set deals with neutrophil. Particulars: Ca^++ ionophore and FLMP; cited from earlier work.
For another data set, the system named is PMN leucocyte. Particulars: 200 mg for 10 days; cited from earlier work.
The test system of a further data set is Neutrophils. Particulars: 10^-6 M, 10 min 37° C; FIG. 2, ** p<0.01.
The test system of data set [7] is human PMN neutrophils. The experiment in a line: IL-8-stimulated human PMN neutrophil degranulation (elastase release), FIG. 1. The class given is cell-based. The following applies: IL-8 50 ng/ml, cytoclasin B 10^-5 M, 30 min 37° C; FIG. 1, ** p<0.05 against IL-8. As to the method: Human PMN neutrophils (10^7 /ml) were stimulated in the presence of cytoclasin B (10^-5 M) by adding IL-8 (50 ng/ml) and incubating them for 30 min at 37° C. La^+++ was added 5 min before IL-8 and the lysine salts of (R)- and (S)-ketoprofen 15 min before IL-8. Degranulation was evaluated based on the amount of elastase released in the cell-free surnatant and is expressed as DOD×10^3 /min.

The subject of data set [8] is human PMN neutrophils. Put plainly: [Ca^++ ]i increase induced by FMLP in human PMN neutrophils. It counts as cell-based. The following applies: FLMP 10^-7 M; % of basal (100%); no treatment 208 ± 7. The text has this: (§1) Results are expressed as percent of the basal value of [Ca^++ ]i and are the mean from the values of all responsive cells. Standard error of the mean (SEM) and number of replications (n, in brackets) are also reported.

For data set [9], the system named is mouse peritoneal macrophages. The experiment in a line: lipopolysaccharide-stimulated TNF-a release from mouse peritoneal macrophages. It counts as cell-based. Particulars: LPS-stimulated; 10^-9 -10^-5 M.
Data set [10] concerns oedema formation. The following applies: 25 to 750 mmoles/kg.
Data set [11] concerns Ca^++ channels, human PMN neutrophils. Put plainly: competition study with lanthanum ions: [Ca^++ ]i increase induced by IL-8, role of Ca^++ channels. The class given is cell-based. Particulars: ketoprofen L-lysine salt 10^-8 M; La^+++ 10 μM; IL-8 50 ng/ml; % of basal (100%). How it is done:
Results reported in Table 2 are the cumulative values from 3 trials (3 donors, 3-7 cells per specimen). […] Responses are expressed as percent of basal [Ca^++ ]i value and are the mean from the values of all responsive cells. Standard error of the mean (SEM) and number of replications (in brackets) are also reported. […] The concentration of ketoprofen L-lysine salt was 10^-8 M, that of La^+++ 10 μM, and that of IL-8 50 ng/ml.

Data set [12] concerns human PMN neutrophils. Put plainly: [Ca^++ ]i increase induced by C5a in human PMN neutrophils. The class given is cell-based.
Description: as §1

The test system of another data set is human PMN leukocytes. Put plainly: [Ca^++ ]i increase induced by IL-8 in human PMN leukocytes. The following applies: IL-8 50 ng/ml, % of basal [Ca^++ ]i (basal 100%), no drug 302 ± 11. It counts as cell-based. As to the method:
The results reported in Table 1 are cumulative data obtained from 8 trials (8 donors who gave their explicit consent, 3 to 7 cells per specimen). […] The responses, expressed as percent of basal value of [Ca^++ ]i, are the mean from all responsive cells; standard error of the mean (±SEM) and number of replications (in brackets) are also reported. […] IL-8 concentration was 50 ng/ml.

Data set [13] has as its system mouse peritoneal macrophages. The experiment in a line: lipopolysaccharide-stimulated IL-1b release from mouse peritoneal macrophages. The class given is cell-based. Particulars: LPS-stimulated; 10^-9 -10^-5 M.
For data set [14], the system named is oedema formation. Put plainly: animal or person. Particulars: Cavia porcellus, read-out: dose from which oedema inhibition is statistically significant.
Data set [15] in a line: gastric ulcer-inducing properties in rats (ulcer score). The class given is in vivo. The following applies: rat. The source says:
Guinea-pigs are a species naturally resistant to the gastrolesive action of NSAIDs, so that it is not possible to compare the two enantiomers in respect to this parameter in this species, unless using very high doses, having no predictive value. To this purpose, rats are necessarily, again, the chosen species, although the least suitable. […] The differences among the enantiomers and the racemate were statistically significant starting from the dose of […]: at this dose an "ulcer score" of 2 was evaluated for the (R) enantiomer, compared with "ulcer scores" of 3 and 4 for the racemate and the (S) enantiomer, respectively.

For a further data set, the system named is hyperalgesia. The experiment in a line: animal or person. The source says: In order to predict the therapeutic effect of the racemates in men, it is necessary to know how much the single enantiomers contribute to the global activity, using experimental models excluding metabolic bio-conversion. […] This model allows the contemporary evaluation of the inhibition of oedema formation and of hyperalgesia.

A further data set relates to PMN leukocytes. The following applies: cited from earlier work.
In the next data set the test system is T-cell. Particulars: stimulated by these agonists; cited from earlier work.

On to `C[C@@H](C(=O)O)c1cccc(C(=O)c2ccccc2)c1` [(R)-ketoprofen, (R)-2-(3-benzoylphenyl)propionic acid], for which the “inhibition of pain perception” value in the data set with pain perception is given as “efficacy at least similar to that of the (S) enantiomers”. In the data set with COX-1, the “inhibition of COX-1” value is recorded as “do not inhibit”. For the same compound, the “inhibition of COX-2” value in the data set with COX-2 is “do not inhibit”. Also, in the data set on platelet aggregation, the “inhibitory action on platelet aggregation” value is “substantially devoid”. Besides, the “in vivo antiinflammatory effectiveness, croton oil-induced ear oedema” value in [1] is “significantly lower than those of the racemate and of the (S) enantiomer”. In addition, the “conversion of (R) into (S) enantiomer” value in data set [2] is “completely converted”. In data set [3], the “in vivo antiinflammatory effectiveness, carrageenin-induced oedema” value is “significantly lower than those of the racemate and of the (S) enantiomer”. In the data set on TXB2 synthesis, this compound displayed an IC50 of 9.75 ± 0.75 mM. Further, in data set [4], the “Protection, UV radiation-induced epidermal erythema” value is 53.1±4.6%. Further, in “gastrolesive action”, the gastrolesive action entry is “substantially devoid”.
As for `CC(C(=O)O)c1cccc(C(=O)c2ccccc2)c1` (racemic) [ketoprofen], the “chemotactic activity induced by zymosan” value in data set [5] is reported as “inhibited”. In [6] (later demonstration against the earlier one), the “migration of cells into the pleural cavity, later study” value is given as “exatly the opposite”. Moreover, the “migration of cells into the pleural cavity” value in [6] (oral, PMN cells vs monocytes, thought in 1975) is on record as “inhibit the migration of PMN cells, but not that of monocytes”. Moreover, in [6] (oral), the “carrageenin-induced formation of pleural exudate” value was “inhibited”. Besides, in the data set with neutrophil, the “inhibition of neutrophil activation / blockade of Ca^++ ion entry” value is “completely inactive”. For the same compound, in the data set on PMN leucocyte, the PMN leucocyte fagocytosis entry is recorded as “reduction” and the “bactericidal function of PMN” value is recorded as “not affected”.
With `C[C@@H](C(=O)O)c1cccc(C(=O)c2ccccc2)c1` [(R)-ketoprofen L-lysine salt, (R)-2-(3-benzoylphenyl)propionic acid], in the data set with Neutrophils, the “inhibitory effect on IL-8-stimulated chemotactic migration” value is “specific inhibitory effects”. In the data set on human PMN neutrophils [7], the “inhibitory effect on human PMN neutrophil degranulation (elastase release)” value is “specific inhibitory effects”. For the same compound, the “FMLP [Ca^++ ]i (% ± SEM)” value with human PMN neutrophils [8] was found to be 193 ± 6%. The “effect on TNF-a release” value in data set [9] is “completely ineffective”. For the same compound, the “inhibition of oedema formation” value in the data set on oedema formation [10] is “significantly inhibited oedema formation”. Further, in data set [11], the “La^+++ + IL-8 [Ca^++ ]i (% ± SEM)” value amounted to 176 ± 7%. The “C5a [Ca^++ ]i (% ± SEM)” value in the data set with human PMN neutrophils [12] (C5a 10^-8 M, % of basal (100%), no treatment 198 ± 10) was 153 ± 4%. The “percent of non responsive cells” value in the data set with human PMN neutrophils [12] (C5a stimulation and treatment with the L-lysine salts) stood at 50%. Further, the “[Ca^++ ]i (% ± SEM)” value in the data set on human PMN leukocytes (drug 10^-6 M) is given as 182 ± 15%; in the data set on human PMN leukocytes (drug 10^-7 M) it was 193 ± 10%; with human PMN leukocytes (drug 10^-8 M), 188 ± 8%; in the data set on human PMN leukocytes (drug 10^-9 M), 364 ± 29%. For the same compound, the “effect on IL-1b release” value in data set [13] is on record as “completely ineffective”. In addition, in the data set with oedema formation [14], the minimal effective dose is 250000 µmol/kg. The same compound gave a ulcer score in [15] (40 mmoles/kg) of 2. Further, in data set [15] (compared with (S) enantiomer), the ulcer-inducing properties entry is recorded as “less ulcer-inducing properties”. Further, the “inhibitory effect on hyperalgesia” value with hyperalgesia (25 to 750 mmoles/kg) is “marked, dose-dependent inhibitory effect on hyperalgesia”. The “doses with marked, dose-dependent inhibition of hyperalgesia” value with hyperalgesia (maximal at the highest dose) lay within 75 to 250 mmol/kg.
In the case of “4-[3-(4-Fluorophenyl)]-2-[[4-(N-3-(2-quinolinmethoxy) phenyl)]amino]phenylpropylbenzoic acid [ETH-615]”, in the data set on PMN leukocytes (FLMP), the “chemotaxis of PMN leukocytes induced by FLMP” value is “only slightly inhibited”. Further, the “chemotaxis of PMN leukocytes induced by IL-8 or LTB4” value with PMN leukocytes (IL-8 or LTB4) is on record as “clearly inhibited”. For the same compound, in the data set with T-cell, the T-cell migration result is on record as “no effects”.

By IC50 is commonly meant the concentration that inhibits the measured activity by half. High values mean lower potency, low ones higher potency.
